From ChEMBL document CHEMBL1201862, “PubChem BioAssay data set” (2004)
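Dose response: 5 concentrations. Exposure: 48 h. Format: 96-well plates. Endpoint: linear interpolation; highest concentration if not reached. Abbreviation: GI50, concentration required for 50% inhibition of growth.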 The source made the active and inactive calls. Rule as the data show it: active = GI50 up to about 1.1 µM and inactive = higher.

What was measured:
Experiment in all cases: NCI tumour cell line growth inhibition, 48 h
RXF 631 = tested on: RXF 631
KM-20L2 = tested on: KM-20L2
DMS-114 = tested on: DMS-114
SNB-78 = tested on: SNB-78
DLD-1 = tested on: DLD-1
XF498 = tested on: XF498
LXFL 529 = tested on: LXFL 529
M19-MEL = tested on: M19-MEL
HOP-18 = tested on: HOP-18

Measured: GI50

C1CCN(c2nc(=[N+]3CCCCC3)ss2)CC1
inactive: RXF 631 > 100 µM | KM-20L2 > 100 µM | DMS-114 31.1 µM | SNB-78 > 100 µM | DLD-1 > 100 µM | XF498 > 100 µM | LXFL 529 > 100 µM | M19-MEL > 100 µM | HOP-18 > 100 µM

CCCCCCC(C)CCCCCCCCCCC(=O)O (stereo unspecified)
inactive: RXF 631 > 100 µM | KM-20L2 > 100 µM | DMS-114 > 100 µM | DLD-1 > 100 µM | XF498 > 100 µM | LXFL 529 > 100 µM | M19-MEL > 100 µM | HOP-18 > 100 µM

Cc1ccccc1NC(=O)CC1C(=O)Nc2ccccc2[S+]1[O-] (stereo unspecified)
inactive: RXF 631 93.8 µM | KM-20L2 > 100 µM | DMS-114 > 100 µM | SNB-78 > 100 µM | DLD-1 > 100 µM | XF498 96.6 µM | LXFL 529 > 100 µM | M19-MEL > 100 µM

O=C1CCNC(=O)NC1
inactive: RXF 631 > 100 µM | KM-20L2 > 100 µM | DMS-114 > 100 µM | SNB-78 > 100 µM | DLD-1 > 100 µM | XF498 > 100 µM | LXFL 529 > 100 µM | M19-MEL > 100 µM | HOP-18 > 100 µM

COC1(OC)CC2OC1C1N=NN(C(=O)OC(C)(C)C)C21 (stereo unspecified)
inactive: RXF 631 > 100 µM | KM-20L2 > 100 µM | DMS-114 67 µM | SNB-78 > 100 µM | DLD-1 34.8 µM | XF498 > 100 µM | LXFL 529 > 100 µM | M19-MEL > 100 µM | HOP-18 > 100 µM

NNC(=S)N/N=C(\CC1OC(=O)c2ccccc21)c1ccccc1O (stereo unspecified)
inactive: RXF 631 26.5 µM | KM-20L2 92.5 µM | DMS-114 58.1 µM | SNB-78 33 µM | DLD-1 44.6 µM | XF498 34.2 µM | LXFL 529 53.1 µM | M19-MEL 20.7 µM | HOP-18 94.4 µM

O=C1C=Cc2c(-c3ccccc3)oc3cccc1c23
inactive: RXF 631 10.4 µM | KM-20L2 27.2 µM | DMS-114 17.8 µM | SNB-78 48.3 µM | DLD-1 13.2 µM | XF498 7.28 µM | LXFL 529 22.8 µM | M19-MEL 23 µM | HOP-18 15 µM
